Measurements as given in US20090099127A1, “Nematicidal Compositions and Methods” (priority 2005, published 2009).

Legend:
Thrips [1] = assay: Thrips damage rating on cotton plants (Delta and Pineland variety 555), Example 1; type: in vivo; details: cotton variety 555, 1 = no damage, 5 = plant completely damaged (dead)
Description: This example illustrates the effect of a composition of the invention on cotton plant damage and plant height for cotton plants planted in soil known to have nematode (Rotylenchulus reniformis) pressure. The cotton plants utilized were commercially available Delta and Pineland variety 555.
The compositions described in Table 1 below were applied either as a seed treatment (Samples B, C, and E-G) or in furrow (Sample D) at the respective application rates set forth in Table 1.

Thrips [2] = assay: Thrips damage rating on cotton plants (Fibermax cotton variety 960), Example 2; type: in vivo; details: 1 = no damage, 5 = dead
Description: This example illustrates the effect of the compositions from Table 1 for cotton plants planted in soil known to have nematode (Rotylenchulus reniformis) pressure. FIGS. 4 and 5 illustrate the Thrips damage ratings at three and four weeks, respectively, after planting. FIG. 6 illustrates the plant height seven weeks after planting. The cotton plants utilized were commercially available Fibermax cotton variety 960.

| Compound | Thrips Damage Rating (Thrips [1]; 3 weeks after planting) | Thrips Damage Rating (Thrips [1]; 4 weeks after planting) | Thrips Damage Rating (Thrips [2]; 3 weeks after planting) | Thrips Damage Rating (Thrips [2]; 4 weeks after planting) |
| --- | --- | --- | --- | --- |
| O=[N+]([O-])NC1=NCCN1Cc1ccc(Cl)nc1 [B, imidacloprid] | 2 | 2.3 | 2.63 | 2.5 |
| CNC(=O)O/N=C/C(C)(C)SC [Sample D, aldicarb] | 1.13 | 1.5 | 2.5 | 2.1 |
| O=[N+]([O-])NC1=NCCN1Cc1ccc(Cl)nc1 [E, imidacloprid] | 2.25 | 2.4 | 2.88 | 3 |
